In brackets after ≈: the same amount, converted by molar mass.
Tests used:
physchem [1] = settings: n-octanol/phosphate buffer, pH 7.4
Pseudomonas aeruginosa = assay: microbe, parasite or virus in culture; settings: ATCC 27853
Escherichia coli = assay: microbe, parasite or virus in culture; settings: ATCC 25922
physchem [2] = assay: physchem
physchem [3] = settings: buffer, pH 7
physchem [4] = settings: buffer, pH 9
[5] = tested on: T1, UDP-3-O-acyl-N-acetylglucosamine deacetylase (Escherichia coli K-12), P0A725 [C125S]; settings: 25 uM
T1 sequence (whole entry): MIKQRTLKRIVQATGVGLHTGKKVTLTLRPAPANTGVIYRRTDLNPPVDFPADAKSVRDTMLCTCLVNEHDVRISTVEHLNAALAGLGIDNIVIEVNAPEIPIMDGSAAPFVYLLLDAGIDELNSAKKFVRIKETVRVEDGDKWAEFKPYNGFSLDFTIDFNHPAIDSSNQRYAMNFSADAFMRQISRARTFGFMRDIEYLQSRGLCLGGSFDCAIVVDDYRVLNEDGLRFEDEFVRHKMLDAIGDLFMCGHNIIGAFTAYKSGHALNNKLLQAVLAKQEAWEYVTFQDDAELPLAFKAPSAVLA

[6] = tested on: T2, UDP-3-O-acyl-N-acetylglucosamine deacetylase (Pseudomonas aeruginosa (strain ATCC 15692 / PAO1 / 1C / PRS 101 / LMG12228)), P47205 [C40S]; settings: 25 uM
T2 sequence (whole entry): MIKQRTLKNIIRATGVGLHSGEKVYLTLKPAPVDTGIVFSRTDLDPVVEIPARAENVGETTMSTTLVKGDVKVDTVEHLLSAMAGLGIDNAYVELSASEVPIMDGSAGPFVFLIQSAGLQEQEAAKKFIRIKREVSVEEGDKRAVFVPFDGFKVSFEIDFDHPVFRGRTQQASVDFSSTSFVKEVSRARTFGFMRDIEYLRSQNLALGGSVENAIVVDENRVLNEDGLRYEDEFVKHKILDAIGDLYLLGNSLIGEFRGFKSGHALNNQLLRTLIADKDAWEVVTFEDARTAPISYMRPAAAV

Klebsiella pneumoniae = assay: microbe, parasite or virus in culture; settings: T6474
physchem [7] = settings: buffer, pH 4
in vitro [8] = settings: rat, liver microsomes
in vitro [9] = settings: rat, hepatocytes

SMILES | logD (physchem [1]) | MIC (Pseudomonas aeruginosa) [µg/mL] | MIC (Escherichia coli) [µg/mL] | pKa (physchem [2]) | solubility at 24 h (physchem [3]) [µg/mL] | solubility at 24 h (physchem [4]) [µg/mL] | deltaTm [5] [K] | deltaTm [6] [K] | MIC (Klebsiella pneumoniae) [µg/mL] | solubility at 24 h (physchem [7]) [µg/mL] | microsomal CLint at 1 µM (in vitro [8]) [µL/min/mg] | hepatocyte CLint at 1 µM (in vitro [9]) [µL/min/1e6 cells]
CCN1CC(C#CC#Cc2cc3n(c2)C(=O)N(CC[C@](C)(C(=O)NO)S(C)(=O)=O)C3)C1 | 0.6 | 0.5 (≈ 1.12 µM) | 0.25 (≈ 0.56 µM) | 8.5 | > 750 | > 750 | 9.3 | 10.4 | 0.5 (≈ 1.12 µM) | > 750 |  | 
C[C@]1(CO)C[C@@H]1C#CC#Cc1cc2n(c1)C(=O)N(CC[C@](C)(C(=O)NO)S(C)(=O)=O)C2 | 1.6 | 0.25 (≈ 0.559 µM) | 0.25 (≈ 0.559 µM) |  | 401 (≈ 896 µM) | 506 (≈ 1130 µM) |  |  | 0.25 (≈ 0.559 µM) | 344 (≈ 769 µM) | < 10 | 55
CN1CCC(C#CC#Cc2cc3n(c2)C(=O)N(CC[C@](C)(C(=O)NO)S(C)(=O)=O)C3)CC1 | 0.2 | 1 (≈ 2.17 µM) | 4 (≈ 8.69 µM) | 9 | > 780 | 574 (≈ 1250 µM) | 10.6 | 11.3 | 4 (≈ 8.69 µM) | > 780 |  | 
C[C@@](CCN1Cc2cc(C#CC#CC3CNC3)cn2C1=O)(C(=O)NO)S(C)(=O)=O | -1 | 1 (≈ 2.39 µM) | 8 (≈ 19.1 µM) | 9.4 | > 710 | > 710 | 8 | 9.3 | 4 (≈ 9.56 µM) | > 710 |  | 
C[C@@](CCN1Cc2cc(C#CC#CC3(F)CNC3)cn2C1=O)(C(=O)NO)S(C)(=O)=O | 0.3 | 2 (≈ 4.58 µM) | 1 (≈ 2.29 µM) | 8 | 175 (≈ 401 µM) | 279 (≈ 639 µM) | 7.1 | 10 | 2 (≈ 4.58 µM) | > 740 |  | 
CN(C)C1(C#CC#Cc2cc3n(c2)C(=O)N(CC[C@](C)(C(=O)NO)S(C)(=O)=O)C3)CC1 | 2.1 | 0.5 (≈ 1.12 µM) | 0.25 (≈ 0.56 µM) | 5.5 | 15 (≈ 33.6 µM) | 95 (≈ 213 µM) | 11.6 | 13.4 | 0.5 (≈ 1.12 µM) | 412 (≈ 923 µM) |  | 
CC(=O)N1CC(C#CC#Cc2cc3n(c2)C(=O)N(CC[C@](C)(C(=O)NO)S(C)(=O)=O)C3)C1 | 0.3 | 1 (≈ 2.17 µM) | 1 (≈ 2.17 µM) |  | > 780 | > 780 | 9.7 | 12.4 | 1 (≈ 2.17 µM) | > 780 |  | 
C[C@@](CCN1Cc2cc(C#CC#CC3CN(CC(F)F)C3)cn2C1=O)(C(=O)NO)S(C)(=O)=O | 1.4 | 1 (≈ 2.07 µM) | 0.06 (≈ 0.124 µM) | 5.2 | 209 (≈ 433 µM) | > 820 | 10.6 | 13.2 | 0.25 (≈ 0.518 µM) | > 820 |  | 
C[C@@](CCN1Cc2cc(C#CC#CC3(CN)CC3)cn2C1=O)(C(=O)NO)S(C)(=O)=O | -0.4 | 16 (≈ 37 µM) | 8 (≈ 18.5 µM) | 9.2 | 552 (≈ 1280 µM) | > 730 | 9.6 | 10.7 | 16 (≈ 37 µM) | > 730 |  | 
CN1CCC(F)(C#CC#Cc2cc3n(c2)C(=O)N(CC[C@](C)(C(=O)NO)S(C)(=O)=O)C3)CC1 | 1 | 1 (≈ 2.09 µM) | 0.5 (≈ 1.04 µM) | 8 | 384 (≈ 802 µM) | 203 (≈ 424 µM) | 9.6 | 12 | 1 (≈ 2.09 µM) | > 810 |  | 
C[C@@](CCN1Cc2cc(C#CC#C[C@H]3C[C@]3(F)CO)cn2C1=O)(C(=O)NO)S(C)(=O)=O | 0.9 | 0.5 (≈ 1.11 µM) | 0.25 (≈ 0.554 µM) |  | 613 (≈ 1360 µM) | > 760 |  |  | 0.5 (≈ 1.11 µM) | 354 (≈ 784 µM) | 16 | 13
C[C@@](CCN1Cc2cc(C#CC#CC3CN(C4COC4)C3)cn2C1=O)(C(=O)NO)S(C)(=O)=O | 0.5 | 1 (≈ 2.11 µM) | 0.25 (≈ 0.527 µM) | 5.5 | 128 (≈ 270 µM) | 681 (≈ 1440 µM) | 10.5 | 12.6 | 0.5 (≈ 1.05 µM) | > 800 |  | 
CC(C)N1CC(C#CC#Cc2cc3n(c2)C(=O)N(CC[C@](C)(C(=O)NO)S(C)(=O)=O)C3)C1 | 1 | 0.5 (≈ 1.09 µM) | 0.25 (≈ 0.543 µM) | 8.3 | 398 (≈ 864 µM) | 420 (≈ 912 µM) | 9.6 | 11.2 | 0.25 (≈ 0.543 µM) | > 780 |  | 
C[C@@](CCN1Cc2cc(C#CC#C[C@@H]3C[C@H]3CO)cn2C1=O)(C(=O)NO)S(C)(=O)=O |  | 0.5 (≈ 1.15 µM) | 0.12 (≈ 0.277 µM) |  | 602 (≈ 1390 µM) | 552 (≈ 1270 µM) |  |  | 0.25 (≈ 0.577 µM) | 600 (≈ 1380 µM) | < 10 | 13.4
CN1CC(C#CC#Cc2cc3n(c2)C(=O)N(CC[C@](C)(C(N)=O)S(C)(=O)=O)C3)C1 | 0.5 | > 32 | > 32 | 8.4 | 706 (≈ 1700 µM) | 92 (≈ 221 µM) | 0 | 0.3 | > 32 | > 700 |  | 
CNC1(C#CC#Cc2cc3n(c2)C(=O)N(CC[C@](C)(C(=O)NO)S(C)(=O)=O)C3)CC1 | 1.4 | 0.5 (≈ 1.16 µM) | 0.12 (≈ 0.277 µM) | 6.5 | 182 (≈ 421 µM) | 486 (≈ 1120 µM) | 10.6 | 12.2 | 0.25 (≈ 0.578 µM) | 551 (≈ 1270 µM) |  | 
C[C@@](CCN1Cc2cc(C#CC#CCN3CCC(O)CC3)cn2C1=O)(C(=O)NO)S(C)(=O)=O | 0.4 | 1 (≈ 2.1 µM) | 1 (≈ 2.1 µM) | 6.5 | > 810 | > 810 | 9.5 | 11.5 | 2 (≈ 4.2 µM) | > 810 |  | 
C[C@@](CCN1Cc2cc(C#CC#C[C@@H]3C[C@H]3[C@H](O)CO)cn2C1=O)(C(=O)NO)S(C)(=O)=O | 0.5 | 0.5 (≈ 1.08 µM) | 0.25 (≈ 0.539 µM) |  | > 780 | > 780 |  |  | 1 (≈ 2.16 µM) | 618 (≈ 1330 µM) | < 10 | 10
C[C@@](CCN1Cc2cc(C#CC#CC3CCN(C4COC4)CC3)cn2C1=O)(C(=O)NO)S(C)(=O)=O | 1.1 | 2 (≈ 3.98 µM) | 0.5 (≈ 0.995 µM) | 6.2 | 329 (≈ 655 µM) | > 850 | 11.1 | 13.2 | 1 (≈ 1.99 µM) | > 850 |  | 
CN1CC(F)(C#CC#Cc2cc3n(c2)C(=O)N(CC[C@](C)(C(=O)NO)S(C)(=O)=O)C3)C1 | 1.1 | 2 (≈ 4.44 µM) | 0.12 (≈ 0.266 µM) | 6.7 | 219 (≈ 486 µM) | > 760 | 8.1 | 11.6 | 0.5 (≈ 1.11 µM) | > 760 |  | 

— ChEMBL document CHEMBL4321867, “Optimization of LpxC Inhibitor Lead Compounds Focusing on Efficacy and Formulation for High Dose Intravenous Administration” (J Med Chem, 2020)
